This passage reports activity coefficient results from the NIST ThermoML archive (doi:10.1021/je500050p).

Numbers after ± are expanded uncertainties.

This data set in a line: activity coefficient (dimensionless); of the first substance listed, at infinite dilution; xn = mol fraction of the nth substance listed. The conditions noted are these: 101 kPa, Liquid, Chromatography, x1 = 0.

For `CCCCCCC` [heptane] + CCCCCCCCCCCCCC[N+](CCCCCC)(CCCCCC)CCCCCC.C[C@H](O)C(=O)[O-], the activity coefficient by setting is: (323.15 K) 1.22 ± 0.08; (353.15 K) 1.17 ± 0.07; (373.15 K) 1.16 ± 0.07.
Regarding `C=CCCCC` [hex-1-ene] + CC1(C)[C@@H]2CC[C@@]1(CS(=O)(=O)[O-])C(=O)C2.CCCCCCCCCCCCCC[N+](CCCCCC)(CCCCCC)CCCCCC, the activity coefficient (323.15 K) is 0.85 ± 0.05, the activity coefficient (333.15 K) stood at 1.13 ± 0.07 and the activity coefficient (343.15 K) was 1.75 ± 0.12.
For the compound `C=CCCCC` [hex-1-ene] + CCCCCCCCCCCCCC[N+](CCCCCC)(CCCCCC)CCCCCC.C[C@H](O)C(=O)[O-], the activity coefficient by setting is: (323.15 K) 0.93 ± 0.06; (353.15 K) 0.95 ± 0.06; (373.15 K) 0.97 ± 0.06.
On to `CCCCCC` [hexane] + CC1(C)[C@@H]2CC[C@@]1(CS(=O)(=O)[O-])C(=O)C2.CCCCCCCCCCCCCC[N+](CCCCCC)(CCCCCC)CCCCCC, for which the activity coefficient (323.15 K) is 1.05 ± 0.07, the activity coefficient (333.15 K) stood at 1.54 ± 0.1 and the activity coefficient (343.15 K) amounted to 1.81 ± 0.12.
In the case of `CCCCCC` [hexane] + CCCCCCCCCCCCCC[N+](CCCCCC)(CCCCCC)CCCCCC.C[C@H](O)C(=O)[O-], the activity coefficient by setting is: (323.15 K) 1.11 ± 0.07; (353.15 K) 1.06 ± 0.07; (373.15 K) 1.06 ± 0.07.
As for `CO` [methanol] + CC1(C)[C@@H]2CC[C@@]1(CS(=O)(=O)[O-])C(=O)C2.CCCCCCCCCCCCCC[N+](CCCCCC)(CCCCCC)CCCCCC, the activity coefficient by setting is: (323.15 K) 0.08 ± 0.03; (333.15 K) 0.13 ± 0.03; (343.15 K) 0.2.
As to `CO` [methanol] + CCCCCCCCCCCCCC[N+](CCCCCC)(CCCCCC)CCCCCC.C[C@H](O)C(=O)[O-], the activity coefficient turned out to be 0.03 (323.15 K), 0.03 (353.15 K) and 0.03 (373.15 K).
Consider `CC1CCCCC1` [methylcyclohexane] + CC1(C)[C@@H]2CC[C@@]1(CS(=O)(=O)[O-])C(=O)C2.CCCCCCCCCCCCCC[N+](CCCCCC)(CCCCCC)CCCCCC, for which the activity coefficient reads like this: (323.15 K) 0.75 ± 0.05; (333.15 K) 1; (343.15 K) 1.33 ± 0.09.
With `CC1CCCCC1` [methylcyclohexane] + CCCCCCCCCCCCCC[N+](CCCCCC)(CCCCCC)CCCCCC.C[C@H](O)C(=O)[O-], the activity coefficient is 0.86 ± 0.06 (323.15 K), 0.82 ± 0.05 (353.15 K) and 0.81 ± 0.05 (373.15 K).
In the case of `CC1CCCC1` [methylcyclopentane] + CC1(C)[C@@H]2CC[C@@]1(CS(=O)(=O)[O-])C(=O)C2.CCCCCCCCCCCCCC[N+](CCCCCC)(CCCCCC)CCCCCC, the activity coefficient is, setting by setting: (323.15 K) 0.75 ± 0.05; (333.15 K) 1; (343.15 K) 1.33 ± 0.09.
`CC1CCCC1` [methylcyclopentane] + CCCCCCCCCCCCCC[N+](CCCCCC)(CCCCCC)CCCCCC.C[C@H](O)C(=O)[O-]: the activity coefficient was 0.82 ± 0.05 (323.15 K), 0.78 ± 0.05 (353.15 K) and 0.77 ± 0.05 (373.15 K).
Consider `C[N+](=O)[O-]` [nitromethane] + CC1(C)[C@@H]2CC[C@@]1(CS(=O)(=O)[O-])C(=O)C2.CCCCCCCCCCCCCC[N+](CCCCCC)(CCCCCC)CCCCCC, for which the activity coefficient was found to be 0.34 ± 0.03 (323.15 K), 0.5 ± 0.1 (333.15 K) and 0.7 ± 0.1 (343.15 K).
For the compound `C[N+](=O)[O-]` [nitromethane] + CCCCCCCCCCCCCC[N+](CCCCCC)(CCCCCC)CCCCCC.C[C@H](O)C(=O)[O-], the activity coefficient by setting is: (323.15 K) 0.32 ± 0.03; (353.15 K) 0.31 ± 0.03; (373.15 K) 0.31 ± 0.03.
For `CCCCCCCCC` [nonane] + CC1(C)[C@@H]2CC[C@@]1(CS(=O)(=O)[O-])C(=O)C2.CCCCCCCCCCCCCC[N+](CCCCCC)(CCCCCC)CCCCCC, the activity coefficient runs as follows: (323.15 K) 1.5 ± 0.1; (333.15 K) 2.26 ± 0.15; (343.15 K) 3.24 ± 0.22.
Take `CCCCCCCCC` [nonane] + CCCCCCCCCCCCCC[N+](CCCCCC)(CCCCCC)CCCCCC.C[C@H](O)C(=O)[O-]: the activity coefficient by setting is: (323.15 K) 1.67 ± 0.11; (353.15 K) 1.59 ± 0.11; (373.15 K) 1.51 ± 0.1.
Take `CCCCCCCC` [octane] + CC1(C)[C@@H]2CC[C@@]1(CS(=O)(=O)[O-])C(=O)C2.CCCCCCCCCCCCCC[N+](CCCCCC)(CCCCCC)CCCCCC: the activity coefficient (323.15 K) was found to be 1.24 ± 0.08, the activity coefficient (333.15 K) is 1.81 ± 0.12 and the activity coefficient (343.15 K) was 2.53 ± 0.17.
For the compound `CCCCCCCC` [octane] + CCCCCCCCCCCCCC[N+](CCCCCC)(CCCCCC)CCCCCC.C[C@H](O)C(=O)[O-], the activity coefficient runs as follows: (323.15 K) 1.37 ± 0.09; (353.15 K) 1.31 ± 0.09; (373.15 K) 1.29 ± 0.08.
For `CCCC(C)=O` [pentan-2-one] + CC1(C)[C@@H]2CC[C@@]1(CS(=O)(=O)[O-])C(=O)C2.CCCCCCCCCCCCCC[N+](CCCCCC)(CCCCCC)CCCCCC, the activity coefficient (323.15 K) turned out to be 0.52 ± 0.04, the activity coefficient (333.15 K) is 0.78 ± 0.05 and the activity coefficient (343.15 K) was determined as 1.07 ± 0.07.
Turning to `CCCC(C)=O` [pentan-2-one] + CCCCCCCCCCCCCC[N+](CCCCCC)(CCCCCC)CCCCCC.C[C@H](O)C(=O)[O-], the activity coefficient by setting is: (323.15 K) 0.6 ± 0.1; (353.15 K) 0.59 ± 0.04; (373.15 K) 0.59 ± 0.04.
For the compound `CCC(=O)CC` [pentan-3-one] + CC1(C)[C@@H]2CC[C@@]1(CS(=O)(=O)[O-])C(=O)C2.CCCCCCCCCCCCCC[N+](CCCCCC)(CCCCCC)CCCCCC, the activity coefficient runs as follows: (323.15 K) 0.47 ± 0.04; (333.15 K) 0.71 ± 0.05; (343.15 K) 1.03 ± 0.06.
Take `CCC(=O)CC` [pentan-3-one] + CCCCCCCCCCCCCC[N+](CCCCCC)(CCCCCC)CCCCCC.C[C@H](O)C(=O)[O-]: the activity coefficient worked out at 0.55 ± 0.04 (323.15 K), 0.55 ± 0.04 (353.15 K) and 0.57 ± 0.04 (373.15 K).
Consider `CCCO` [propan-1-ol] + CC1(C)[C@@H]2CC[C@@]1(CS(=O)(=O)[O-])C(=O)C2.CCCCCCCCCCCCCC[N+](CCCCCC)(CCCCCC)CCCCCC, for which the activity coefficient by setting is: (323.15 K) 0.09 ± 0.03; (333.15 K) 0.16 ± 0.03; (343.15 K) 0.26 ± 0.03.
Take `CC(C)O` [propan-2-ol] + CC1(C)[C@@H]2CC[C@@]1(CS(=O)(=O)[O-])C(=O)C2.CCCCCCCCCCCCCC[N+](CCCCCC)(CCCCCC)CCCCCC: the activity coefficient (323.15 K) turned out to be 0.12 ± 0.03, the activity coefficient (333.15 K) amounted to 0.2 and the activity coefficient (343.15 K) was 0.32 ± 0.03.
For `c1ccncc1` [pyridine] + CC1(C)[C@@H]2CC[C@@]1(CS(=O)(=O)[O-])C(=O)C2.CCCCCCCCCCCCCC[N+](CCCCCC)(CCCCCC)CCCCCC the same measures were 0.32 ± 0.03, 0.49 ± 0.04 and 0.68 ± 0.05.
On to `c1ccncc1` [pyridine] + CCCCCCCCCCCCCC[N+](CCCCCC)(CCCCCC)CCCCCC.C[C@H](O)C(=O)[O-], for which the activity coefficient was found to be 0.34 ± 0.03 (323.15 K), 0.34 ± 0.03 (353.15 K) and 0.34 ± 0.03 (373.15 K).
`ClC(Cl)(Cl)Cl` [tetrachloromethane] + CC1(C)[C@@H]2CC[C@@]1(CS(=O)(=O)[O-])C(=O)C2.CCCCCCCCCCCCCC[N+](CCCCCC)(CCCCCC)CCCCCC: the activity coefficient came out at 0.35 ± 0.03 (323.15 K), 0.51 ± 0.04 (333.15 K) and 0.75 ± 0.05 (343.15 K).
On to `ClC(Cl)(Cl)Cl` [tetrachloromethane] + CCCCCCCCCCCCCC[N+](CCCCCC)(CCCCCC)CCCCCC.C[C@H](O)C(=O)[O-], for which the activity coefficient (323.15 K) was 0.24 ± 0.03, the activity coefficient (353.15 K) came to 0.26 ± 0.03 and the activity coefficient (373.15 K) turned out to be 0.29 ± 0.03.
Turning to `c1ccsc1` [thiophene] + CC1(C)[C@@H]2CC[C@@]1(CS(=O)(=O)[O-])C(=O)C2.CCCCCCCCCCCCCC[N+](CCCCCC)(CCCCCC)CCCCCC, the activity coefficient is 0.28 ± 0.03 (323.15 K), 0.42 ± 0.04 (333.15 K) and 0.56 ± 0.04 (343.15 K).
On to `c1ccsc1` [thiophene] + CCCCCCCCCCCCCC[N+](CCCCCC)(CCCCCC)CCCCCC.C[C@H](O)C(=O)[O-], for which the activity coefficient (323.15 K) came to 0.28 ± 0.03, the activity coefficient (353.15 K) was determined as 0.29 ± 0.03 and the activity coefficient (373.15 K) came out at 0.3 ± 0.1.
Take `Cc1ccccc1` [toluene] + CC1(C)[C@@H]2CC[C@@]1(CS(=O)(=O)[O-])C(=O)C2.CCCCCCCCCCCCCC[N+](CCCCCC)(CCCCCC)CCCCCC: the activity coefficient stood at 0.41 ± 0.03 (323.15 K), 0.63 ± 0.04 (333.15 K) and 0.88 ± 0.06 (343.15 K).
For `Cc1ccccc1` [toluene] + CCCCCCCCCCCCCC[N+](CCCCCC)(CCCCCC)CCCCCC.C[C@H](O)C(=O)[O-], the activity coefficient (323.15 K) came to 0.46 ± 0.04, the activity coefficient (353.15 K) was 0.46 ± 0.04 and the activity coefficient (373.15 K) came to 0.48 ± 0.04.
`ClC(Cl)Cl` [trichloromethane] + CC1(C)[C@@H]2CC[C@@]1(CS(=O)(=O)[O-])C(=O)C2.CCCCCCCCCCCCCC[N+](CCCCCC)(CCCCCC)CCCCCC: the activity coefficient runs as follows: (323.15 K) 0.05; (333.15 K) 0.09 ± 0.03; (343.15 K) 0.15 ± 0.03.
`ClC(Cl)Cl` [trichloromethane] + CCCCCCCCCCCCCC[N+](CCCCCC)(CCCCCC)CCCCCC.C[C@H](O)C(=O)[O-]: the activity coefficient by setting is: (323.15 K) 0.05; (353.15 K) 0.04; (373.15 K) 0.03.
Regarding `CCN(CC)CC` [triethylamine] + CC1(C)[C@@H]2CC[C@@]1(CS(=O)(=O)[O-])C(=O)C2.CCCCCCCCCCCCCC[N+](CCCCCC)(CCCCCC)CCCCCC, the activity coefficient was 0.84 ± 0.05 (323.15 K), 1.23 ± 0.08 (333.15 K) and 1.55 ± 0.1 (343.15 K).
For `CCCCCCCCCCC` [undecane] + CC1(C)[C@@H]2CC[C@@]1(CS(=O)(=O)[O-])C(=O)C2.CCCCCCCCCCCCCC[N+](CCCCCC)(CCCCCC)CCCCCC, the activity coefficient is 1.62 ± 0.11 (323.15 K), 2.84 ± 0.19 (333.15 K) and 4.32 ± 0.29 (343.15 K).
